Test system: cell line U-87
Experiment: Activity against the cell line U-87
Format: cell-based, human
Details: potency on an equimolar basis

Compound	activity against the cell line U-87
O=C(CCCCCCNC(=O)c1ccccc1S)Nc1ccccc1 [Compound 212, 2-Mercapto-N-(6-phenylcarbamoyl-hexyl)benzamide]	most potent on an equimolar basis
O=C(CCCCCCCNC(=O)c1ccccc1S)Nc1ccccc1 [Compound 213]	most potent on an equimolar basis
